Measurements: patent US20240116985A1, “STAPLED PEPTIDES AND METHODS THEREOF” (priority 2020, published 2024)
Converted amounts (≈) assume the structure as drawn. Read-outs that look alike come from different tables or passages of the source.

How the values were obtained:
CHI Log D procedure = assay type: physicochemical; conditions: for CHI Log D: pH 7.4; for chromatographic logD: pH 7.4, CHI Log D
[1] = biological target: T1, full-length beta-Catenin (Uniprot ID P35222) (Homo sapiens, UniProt P35222); assay: Fluorescence polarization IC50 (beta-catenin / 5FAM-TCF4 10-53 competition); assay type: binding
T1 construct: 10 nM full-length beta-Catenin (Uniprot ID P35222)
T1 sequence (P35222 1-781): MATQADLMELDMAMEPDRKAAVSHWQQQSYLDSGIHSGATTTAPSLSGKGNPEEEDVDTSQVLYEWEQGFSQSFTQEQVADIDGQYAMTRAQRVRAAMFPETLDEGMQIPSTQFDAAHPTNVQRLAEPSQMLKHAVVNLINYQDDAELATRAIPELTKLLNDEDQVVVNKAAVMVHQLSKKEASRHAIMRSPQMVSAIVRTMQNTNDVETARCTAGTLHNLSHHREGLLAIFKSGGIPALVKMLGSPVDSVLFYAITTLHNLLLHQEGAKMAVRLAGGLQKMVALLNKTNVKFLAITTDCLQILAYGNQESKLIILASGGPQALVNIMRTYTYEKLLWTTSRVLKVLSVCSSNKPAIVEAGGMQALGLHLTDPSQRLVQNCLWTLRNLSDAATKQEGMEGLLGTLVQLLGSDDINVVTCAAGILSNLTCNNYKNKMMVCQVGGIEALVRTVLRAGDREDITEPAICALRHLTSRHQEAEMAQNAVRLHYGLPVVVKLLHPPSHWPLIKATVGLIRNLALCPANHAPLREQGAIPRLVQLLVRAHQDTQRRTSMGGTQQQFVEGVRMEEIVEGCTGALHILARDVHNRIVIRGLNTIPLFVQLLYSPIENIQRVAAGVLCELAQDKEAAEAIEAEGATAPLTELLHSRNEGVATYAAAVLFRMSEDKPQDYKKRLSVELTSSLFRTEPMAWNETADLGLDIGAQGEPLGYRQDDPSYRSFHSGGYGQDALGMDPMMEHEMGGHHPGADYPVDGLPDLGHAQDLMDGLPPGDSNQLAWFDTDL

Solubility in PBS = assay type: physicochemical
Summary of the method: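 Steps: ultracentrifuge the peptide PBS solution, inject the supernatant on HPLC, inject a 50 μM peptide DMSO solution as reference, then calculate solubility as area ratio (PBS/DMSO) × 50 uM.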

[2] = fluorescence polarization, read-out: beta-Catenin FP IC50

Row | SMILES | CHI Log D (CHI Log D procedure) | IC50 [1, 2] [nM] | IC50 ([1]; read-out: FP EC50) [nM] | Solubility (Solubility in PBS) [µM] | chromatographic logD (CHI Log D procedure) | Solubility (Solubility in PBS; Solubility (uM)) [µM] | solubility at 15 min (Solubility in PBS; Solubility (uM)) [µM]
1 | CC(=O)N1CCC[C@]12CC=CCCCC1(CCCC=CCCCCCC[C@@](C)(C(=O)N[C@@H](Cc3ccsc3)C(=O)N[C@@H](Cc3csc4ccccc34)C(=O)N[C@@H](CCC(N)=O)C(N)=O)NC(=O)[C@H](CCC(N)=O)NC(=O)[C@H](Cc3ccccc3)NC(=O)[C@H](C)NC(=O)[C@H](C)NC(=O)[C@H](CCC(=O)O)NC(=O)[C@H](CC(=O)O)NC1=O)NC(=O)[C@H](C)NC(=O)[C@H](CC(=O)O)NC2=O (stereo partly drawn) [I-426, Ac-PL3-Asp-Ala-B5-Asp-Glu-Ala-Ala-Phe-Gln-S8-3Thi-BztA-Gln-NH2] | 1.959 | 109 | 109 | 33 (≈ 61 µg/mL) | – | – | –
2 | CC(=O)N1CCC[C@]12CC=CCCCC1(CCCC=CCCCCCC[C@@](C)(C(=O)N[C@@H](Cc3cccc(F)c3)C(=O)N[C@@H](Cc3csc4ccccc34)C(=O)N[C@@H](CCC(N)=O)C(N)=O)NC(=O)[C@H](CCC(N)=O)NC(=O)[C@H](Cc3ccsc3)NC(=O)[C@H](C)NC(=O)[C@H](C)NC(=O)[C@H](CCC(=O)O)NC(=O)[C@H](CC(=O)O)NC1=O)NC(=O)[C@H](C)NC(=O)[C@H](CC(=O)O)NC2=O (stereo partly drawn) [I-429, Ac-PL3-Asp-Ala-B5-Asp-Glu-Ala-Ala-3Thi-Gln-S8-3FF-BztA-Gln-NH2] | – | 146 | – | 50 (≈ 93.3 µg/mL) | 2.07 | – | –
3 | CC(=O)N1CCC[C@]12CC=CCCCC1(CCCC=CCCCCCC[C@@](C)(C(=O)N[C@@H](Cc3cccc(F)c3)C(=O)N[C@@H](Cc3csc4ccccc34)C(N)=O)NC(=O)[C@H](CCC(N)=O)NC(=O)[C@H](Cc3ccsc3)NC(=O)[C@H](C)NC(=O)[C@H](C)NC(=O)[C@H](CCC(=O)O)NC(=O)[C@H](CC(=O)O)NC1=O)NC(=O)[C@H](C)NC(=O)[C@H](CC(=O)O)NC2=O (stereo partly drawn) [I-431, Ac-PL3-Asp-Ala-B5-Asp-Glu-Ala-Ala-3Thi-Gln-S8-3FF-BztA-NH2] | – | 1320 | – | – | 2.23 | 33 (≈ 57.3 µg/mL) | –
4 | CC(=O)N1CCC[C@]12CC=CCCCC1(CCCC=CCCCCCC[C@@](C)(C(=O)N[C@@H](Cc3ccccc3)C(=O)N[C@@H](Cc3csc4ccccc34)C(N)=O)NC(=O)[C@H](CC(N)=O)NC(=O)[C@H](Cc3ccccc3)NC(=O)[C@H](C)NC(=O)[C@H](C)NC(=O)[C@H](CCC(=O)O)NC(=O)[C@H](CC(=O)O)NC1=O)NC(=O)[C@H](C)NC(=O)[C@H](CC(=O)O)NC2=O (stereo partly drawn) [I-432, Ac-PL3-Asp-Ala-B5-Asp-Glu-Ala-Ala-Phe-Asn-S8-Phe-BztA-NH2] | – | 145 | – | – | 2.23 | 23 (≈ 39.1 µg/mL) | –
5 | COC[C@@H]1NC(=O)[C@H](Cc2ccccc2)NC(=O)[C@H](C)NC(=O)[C@H](C)NC(=O)[C@H](CCC(=O)O)NC(=O)[C@H](CC(=O)O)NC(=O)C2(CCCC=CCCCCCC[C@@](C)(C(=O)N[C@@H](Cc3ccccc3)C(=O)N[C@@H](Cc3csc4ccccc34)C(=O)N[C@@H](CCC(N)=O)C(N)=O)NC1=O)CCCC=CC[C@]1(CCCN1C(C)=O)C(=O)N[C@@H](CC(=O)O)C(=O)N[C@@H](C)C(=O)N2 (stereo partly drawn) [I-433, Ac-PL3-Asp-Ala-B5-Asp-Glu-Ala-Ala-Phe-S(OMe)-S8-Phe-BztA-Gln-NH2] | – | 136 | – | – | 2.08 | 39 (≈ 70.7 µg/mL) | –
6 | CC(=O)N1CCC[C@]12CC=CCCCC1(CCCC=CCCCCCC[C@@](C)(C(=O)NC(Cc3cncn3C)C(=O)N[C@@H](Cc3csc4ccccc34)C(=O)N[C@@H](CCC(N)=O)C(N)=O)NC(=O)[C@H](CC(N)=O)NC(=O)[C@H](Cc3ccccc3)NC(=O)[C@H](C)NC(=O)[C@H](C)NC(=O)[C@H](CCC(=O)O)NC(=O)[C@H](CC(=O)O)NC1=O)NC(=O)[C@H](C)NC(=O)[C@H](CC(=O)O)NC2=O (stereo partly drawn) [I-438, Ac-PL3-Asp-Ala-B5-Asp-Glu-Ala-Ala-Phe-Asn-S8-3meH-BztA-Gln-NH2] | – | 5000 | – | – | 1.39 | – | 46 (≈ 84.2 µg/mL)
7 | CC(=O)N1CCC[C@]12CC=CCCCC1(CCCC=CCCCCCC[C@@](C)(C(=O)N[C@@H](Cc3ccccc3[N+](=O)[O-])C(=O)N[C@@H](Cc3csc4ccccc34)C(=O)N[C@@H](CCC(N)=O)C(N)=O)NC(=O)[C@H](CC(N)=O)NC(=O)[C@H](Cc3ccccc3)NC(=O)[C@H](C)NC(=O)[C@H](C)NC(=O)[C@H](CCC(=O)O)NC(=O)[C@H](CC(=O)O)NC1=O)NC(=O)[C@H](C)NC(=O)[C@H](CC(=O)O)NC2=O (stereo partly drawn) [I-441, Ac-PL3-Asp-Ala-B5-Asp-Glu-Ala-Ala-Phe-Asn-S8-2NO2F-BztA-Gln-NH2] | – | 133 | – | – | 2 | 38 (≈ 71.1 µg/mL) | –
8 | CC(=O)N1CCC[C@]12CC=CCCCC1(CCCC=CCCCCCC[C@@](C)(C(=O)N[C@@H](CCc3ccccc3)C(=O)N[C@@H](Cc3csc4ccccc34)C(=O)N[C@@H](CCC(N)=O)C(N)=O)NC(=O)[C@H](CC(N)=O)NC(=O)[C@H](Cc3ccccc3)NC(=O)[C@H](C)NC(=O)[C@H](C)NC(=O)[C@H](CCC(=O)O)NC(=O)[C@H](CC(=O)O)NC1=O)NC(=O)[C@H](C)NC(=O)[C@H](CC(=O)O)NC2=O (stereo partly drawn) [I-442, Ac-PL3-Asp-Ala-B5-Asp-Glu-Ala-Ala-Phe-Asn-S8-hPhe-BztA-Gln-NH2] | 2.098 | 4480 | 4480 | 40 (≈ 73.6 µg/mL) | – | – | –

The next compounds have a lower IC50 [1, 2] than those just listed; values first:

Row | CHI Log D (CHI Log D procedure) | IC50 [1, 2] [nM] | IC50 ([1]; read-out: FP EC50) [nM] | Solubility (Solubility in PBS) [µM] | chromatographic logD (CHI Log D procedure) | Solubility (Solubility in PBS; Solubility (uM)) [µM] | solubility at 15 min (Solubility in PBS; Solubility (uM)) [µM] | SMILES
9 | – | 70 | – | 50 (≈ 93.1 µg/mL) | 2.13 | – | – | CC(=O)N1CCC[C@]12CC=CCCCC1(CCCC=CCCCCCC[C@@](C)(C(=O)N[C@@H](Cc3ccccc3Cl)C(=O)N[C@@H](Cc3csc4ccccc34)C(=O)N[C@@H](CCC(N)=O)C(N)=O)NC(=O)[C@H](CC(N)=O)NC(=O)[C@H](Cc3ccccc3)NC(=O)[C@H](C)NC(=O)[C@H](C)NC(=O)[C@H](CCC(=O)O)NC(=O)[C@H](CC(=O)O)NC1=O)NC(=O)[C@H](C)NC(=O)[C@H](CC(=O)O)NC2=O (stereo partly drawn) [I-435, Ac-PL3-Asp-Ala-B5-Asp-Glu-Ala-Ala-Phe-Asn-S8-2C1F-BztA-Gln-NH2]
10 | – | 67.5 | – | – | 2.05 | 20 (≈ 36.9 µg/mL) | – | CC(=O)N1CCC[C@]12CC=CCCCC1(CCCC=CCCCCCC[C@@](C)(C(=O)N[C@@H](Cc3ccccc3F)C(=O)N[C@@H](Cc3csc4ccccc34)C(=O)N[C@@H](CCC(N)=O)C(N)=O)NC(=O)[C@H](CC(N)=O)NC(=O)[C@H](Cc3ccccc3)NC(=O)[C@H](C)NC(=O)[C@H](C)NC(=O)[C@H](CCC(=O)O)NC(=O)[C@H](CC(=O)O)NC1=O)NC(=O)[C@H](C)NC(=O)[C@H](CC(=O)O)NC2=O (stereo partly drawn) [I-434, Ac-PL3-Asp-Ala-B5-Asp-Glu-Ala-Ala-Phe-Asn-S8-2FF-BztA-Gln-NH2]
11 | – | 60 | – | – | 1.99 | 14 (≈ 25.9 µg/mL) | – | CC(=O)N1CCC[C@]12CC=CCCCC1(CCCC=CCCCCCC[C@@](C)(C(=O)N[C@@H](Cc3cccs3)C(=O)N[C@@H](Cc3csc4ccccc34)C(=O)N[C@@H](CCC(N)=O)C(N)=O)NC(=O)[C@H](CCC(N)=O)NC(=O)[C@H](Cc3ccccc3)NC(=O)[C@H](C)NC(=O)[C@H](C)NC(=O)[C@H](CCC(=O)O)NC(=O)[C@H](CC(=O)O)NC1=O)NC(=O)[C@H](C)NC(=O)[C@H](CC(=O)O)NC2=O (stereo partly drawn) [I-428, Ac-PL3-Asp-Ala-B5-Asp-Glu-Ala-Ala-Phe-Gln-S8-2Thi-BztA-Gln-NH2]
12 | – | 56 | – | 50 (≈ 95.3 µg/mL) | 2.16 | – | – | CC(=O)N1CCC[C@]12CC=CCCCC1(CCCC=CCCCCCC[C@@](C)(C(=O)N[C@@H](Cc3ccccc3Br)C(=O)N[C@@H](Cc3csc4ccccc34)C(=O)N[C@@H](CCC(N)=O)C(N)=O)NC(=O)[C@H](CC(N)=O)NC(=O)[C@H](Cc3ccccc3)NC(=O)[C@H](C)NC(=O)[C@H](C)NC(=O)[C@H](CCC(=O)O)NC(=O)[C@H](CC(=O)O)NC1=O)NC(=O)[C@H](C)NC(=O)[C@H](CC(=O)O)NC2=O (stereo partly drawn) [I-436, Ac-PL3-Asp-Ala-B5-Asp-Glu-Ala-Ala-Phe-Asn-S8-2BrF-BztA-Gln-NH2]
13 | 1.985 | 38.5 | 38.5 | 50 (≈ 92.4 µg/mL) | – | – | – | CC(=O)N1CCC[C@]12CC=CCCCC1(CCCC=CCCCCCC[C@@](C)(C(=O)N[C@@H](Cc3ccsc3)C(=O)N[C@@H](Cc3csc4ccccc34)C(=O)N[C@@H](CCC(N)=O)C(N)=O)NC(=O)[C@H](CCC(N)=O)NC(=O)[C@H](Cc3ccccc3)NC(=O)[C@H](C)NC(=O)[C@H](C)NC(=O)[C@H](CCC(=O)O)NC(=O)[C@H](CC(=O)O)NC1=O)NC(=O)[C@H](C)NC(=O)[C@H](CC(=O)O)NC2=O (stereo partly drawn) [I-427, Ac-PL3-Asp-Ala-B5-Asp-Glu-Ala-Ala-Phe-Gln-S8-3Thi-BztA-Gln-NH2]
